The structures appear in SMILES notation. Read-outs that look alike come from different tables or passages of the source.

In one experiment the test system is Erysiphe graminis—ERYSGT. Briefly: Powdery Mildew of Wheat, in vivo whole plant, 24 Hour Protectant. Conditions: for pest or weed control at 100 ppm: Erysiphe, control of fungal infection vs untreated plants, read-out: ERYSGT in vivo 1 Day Protectant.
In experiment [1] the test system is Leptosphaeria nodorum—LEPTNO. The experiment in a line: Glume Blotch of Wheat, in vivo whole plant, 24 Hour Protectant. Conditions: for pest or weed control at 100 ppm: Leptosphaeria, read-out: LEPTNO in vivo 1 Day Protectant.
The subject of experiment [2] is Magnaporthe grisea (Pyricularia oryzae—PYRIOR). The experiment in a line: microbe, parasite or virus in culture. Format: cell-based. To be noted: Pyricularia oryzae, read-out: PYRIOR in vitro Growth Inhibition.
Experiment [3] has as its system Rhizoctonia solani (RHIZSO). The experiment in a line: microbe, parasite or virus in culture. To be noted: Rhizoctonia solani, read-out: RHIZSO in vitro Growth Inhibition. Format: cell-based.
In the next experiment the test system is Ustilago maydis (USTIMA). The experiment in a line: microbe, parasite or virus in culture. Format: cell-based. To be noted: Mycosarcoma maydis, read-out: USTIMA in vitro Growth Inhibition.
Experiment [4] relates to Puccinia recondita—PUCCRT. The experiment in a line: Brown Rust of Wheat, in vivo whole plant, 24 Hour Protectant. Conditions: for pest or weed control at 100 ppm: Puccinia, read-out: PUCCRT in vivo 1 Day Protectant.
For experiment [5], the system named is Stagonospora nodorum (Leptosphaeria nodorum—LEPTNO). Briefly: In vitro fungal growth inhibition, Stagonospora nodorum (LEPTNO). Format: cell-based. Conditions: Leptosphaeria, read-out: LEPTNO in vitro Growth Inhibition.
Experiment [6] deals with Phytophthora infestans—PHYTIN. The experiment in a line: whole plant or invertebrate. Format: in vivo. To be noted: Phytophthora, in Solanum lycopersicum, 24 h, read-out: PHYTIN in vivo 1 Day Protectant.
The next experiment relates to Septoria tritici—SEPTTR. Briefly: Leaf Blotch of Wheat, in vivo whole plant, 24 Hour Protectant. To be noted: for pest or weed control at 100 ppm: Zymoseptoria tritici, 24 h, read-out: SEPTTR in vivo 1 Day Protectant.
In experiment [7] the test system is Phytophthora infestans (PHYTIN). Briefly: microbe, parasite or virus in culture. Format: cell-based. Conditions: Phytophthora infestans, read-out: PHYTIN in vitro Growth Inhibition.
For experiment [8], the system named is Mycosphaerella graminicola (Septoria tritici—SEPTTR). Briefly: In vitro fungal growth inhibition, Mycosphaerella graminicola (SEPTTR). Format: cell-based. Conditions: Zymoseptoria tritici, read-out: SEPTTR in vitro Growth Inhibition.
Where [9] appears, read: wheat plants sprayed at 100 ppm, inoculated after 24 hours.
Where [10] appears, read: wheat plants sprayed at 100 ppm, inoculated after 24 hours, control of fungal infection vs untreated plants.
The mark [11] stands for this setting: 100 ppm spray, 24 hour protectant, wheat.
[12] abbreviates: 100 ppm spray, 24 hour protectant, wheat, control of fungal infection vs untreated plants.
Where [13] appears, read: 100 ppm spray, wheat, 24 hour protectant, % control of fungal infection vs untreated plants.
[14] abbreviates: 100 ppm spray, wheat, 24 hour protectant.
Setting [15] is: 100 ppm spray, wheat, 24 hour protectant, control of fungal infection vs untreated plants.

Take `CC(NC(=O)c1nc(Br)ccc1O)c1ccc(C(F)(F)F)cc1` (stereo not drawn) [Compound 488]: the pest or weed control at 100 ppm with Erysiphe graminis—ERYSGT (setting [9]) was below 25%; in experiment [1] (setting [10]), below 25%; in experiment [4] (setting [10]), 25 to 74%; in [6], below 25%; in the experiment with Septoria tritici—SEPTTR (setting [10]) it was 25 to 74%. Moreover, the inhibition (as a rule, the relative decrease from the control value, in per cent) at 25 ppm in [2] was above 80%; in [3] it was below 80%; with Ustilago maydis (USTIMA), below 80%; in experiment [5] (25 ppm in the growth medium), below 80%; in experiment [7], below 80%; in [8] (25 ppm in the growth medium), below 80%.

On to `Cc1cc(C)cc(NC(=O)c2ncccc2O)c1` [Compound 215], for which the pest or weed control at 100 ppm (in the experiment on Erysiphe graminis—ERYSGT (setting [11]); in experiment [1] (setting [12]); in experiment [4] (setting [12]); in experiment [6]; with Septoria tritici—SEPTTR (setting [12])) was below 25% each time. The inhibition at 25 ppm in [2] was below 80%; in [3] it was below 80%; with Ustilago maydis (USTIMA), below 80%; in experiment [5] (25 ppm in growth medium) it was below 80%; in [7], below 80%; in experiment [8] (25 ppm in growth medium), above 80%.

Turning to `O=C(Nc1ccc(Oc2cccc(C(F)(F)F)c2)cc1)c1nscc1O` [Compound 551], the pest or weed control at 100 ppm is 25 to 74% with Erysiphe graminis—ERYSGT (setting [9]); 25 to 74% in experiment [1] (setting [10]); below 25% in experiment [4] (setting [10]); below 25% in [6]; 25 to 74% in the experiment with Septoria tritici—SEPTTR (setting [10]). For the same molecule, the inhibition at 25 ppm (in experiment [2]; in experiment [3]; in the experiment on Ustilago maydis (USTIMA); in experiment [5] (25 ppm in the growth medium); in experiment [7]; in [8] (25 ppm in the growth medium)) was below 80% each time.

As to `CCCCCCC(=O)Oc1c(OC)ccnc1C(=O)N[C@H]1COC(=O)[C@H](Cc2ccccc2)[C@@H](OC(=O)C(C)C)[C@H](C)OC1=O` [Compound 613], in the experiment with Erysiphe graminis—ERYSGT (setting [13]), the “ERYSGT in vivo 1 Day Protectant” value is “+ +”. For the same molecule, the pest or weed control at 100 ppm in experiment [1] (setting [13]) and in experiment [6] was 25 to 74% each time. In addition, the inhibition at 25 ppm in experiment [2] is below 80%; in [3], below 80%; in the experiment on Ustilago maydis (USTIMA) it was below 80%; in [5] (25 ppm in growth medium), below 80%; in experiment [7] it was above 80%; in experiment [8] (25 ppm in growth medium) it was below 80%. For the same molecule, the “PUCCRT in vivo 1 Day Protectant” value in experiment [4] (setting [13]) is “+ +”. Besides, the “SEPTTR in vivo 1 Day Protectant” value in the experiment with Septoria tritici—SEPTTR (setting [13]) is given as “+ +”.

Take `COc1ccnc(C(=O)NC2C3(C)CCC(C3)C2(C)C)c1O` (stereo not drawn) [Compound 288]: the pest or weed control at 100 ppm in the experiment with Erysiphe graminis—ERYSGT (setting [11]) was below 25%; in [1] (setting [12]), 25 to 74%; in experiment [4] (setting [12]), below 25%; in [6], below 25%; with Septoria tritici—SEPTTR (setting [12]) it was 25 to 74%. Moreover, the inhibition at 25 ppm in experiment [2] was below 80%; in experiment [3], above 80%; with Ustilago maydis (USTIMA) it was below 80%; in experiment [5] (25 ppm in growth medium), below 80%; in experiment [7] it was below 80%; in experiment [8] (25 ppm in growth medium), below 80%.

Regarding `CCCO[C@@H]1[C@@H](OCCC)[C@H](OCCC)CO[C@H]1NC(=O)c1nccc(OC)c1O` [Compound 331], the pest or weed control at 100 ppm is below 25% in the experiment with Erysiphe graminis—ERYSGT (setting [14]); 25 to 74% in experiment [1] (setting [15]); below 25% in [4] (setting [15]); below 25% in [6]; below 25% with Septoria tritici—SEPTTR (setting [15]). Further, the inhibition at 25 ppm in [2] was above 80%; in experiment [3], below 80%; in the experiment on Ustilago maydis (USTIMA), below 80%; in [5] (25 ppm in growth medium) it was below 80%; in experiment [7], below 80%; in experiment [8] (25 ppm in growth medium) it was below 80%.

As to `O=C(Nc1nccs1)c1ncccc1O` [Compound 235], the pest or weed control at 100 ppm (with Erysiphe graminis—ERYSGT (setting [11]); in [1] (setting [12]); in [4] (setting [12]); in [6]; in the experiment with Septoria tritici—SEPTTR (setting [12])) was below 25% each time. For the same molecule, the inhibition at 25 ppm (in experiment [2]; in experiment [3]; in the experiment on Ustilago maydis (USTIMA); in experiment [5] (25 ppm in growth medium); in [7]; in experiment [8] (25 ppm in growth medium)) was above 80% each time.

As to `COc1ccnc(C(=O)Nc2ccc(Sc3ccc(C(F)(F)F)cc3)cc2)c1O` [Compound 446], the pest or weed control at 100 ppm is below 25% with Erysiphe graminis—ERYSGT (setting [14]); below 25% in experiment [1] (setting [15]); below 25% in [4] (setting [15]); 25 to 74% in [6]; below 25% in the experiment with Septoria tritici—SEPTTR (setting [15]). In addition, the inhibition at 25 ppm (in experiment [2]; in experiment [3]; with Ustilago maydis (USTIMA); in [5] (25 ppm in growth medium); in experiment [7]; in experiment [8] (25 ppm in growth medium)) was below 80% in each case.

`COc1ccnc(C(=O)Nc2cccc(Oc3ccc(C)cc3)c2)c1O` [Compound 414]: the pest or weed control at 100 ppm with Erysiphe graminis—ERYSGT (setting [14]) was below 25%; in experiment [1] (setting [15]), below 25%; in experiment [4] (setting [15]), 25 to 74%; in experiment [6] it was 25 to 74%; in the experiment with Septoria tritici—SEPTTR (setting [15]), below 25%. For the same molecule, the inhibition at 25 ppm in [2] was above 80%; in [3], below 80%; with Ustilago maydis (USTIMA), below 80%; in experiment [5] (25 ppm in growth medium), above 80%; in experiment [7], below 80%; in experiment [8] (25 ppm in growth medium) it was above 80%.

`COc1ccnc(C(=O)N[C@@H](Cc2ccc(OCc3ccccc3)cc2)C(=O)OCc2ccccc2)c1O` [Compound 339]: the pest or weed control at 100 ppm (with Erysiphe graminis—ERYSGT (setting [14]); in experiment [6]) was below 25% throughout. Also, in [1] (setting [15]), the “LEPTNO in vivo 1 Day Protectant” value is reported as “+ +”. For the same molecule, the inhibition at 25 ppm (in [2]; in experiment [3]; in the experiment with Ustilago maydis (USTIMA); in experiment [5] (25 ppm in growth medium); in experiment [7]; in experiment [8] (25 ppm in growth medium)) was below 80% each time. In addition, in [4] (setting [15]), the “PUCCRT in vivo 1 Day Protectant” value is “+ +”. In the experiment on Septoria tritici—SEPTTR (setting [15]), the “SEPTTR in vivo 1 Day Protectant” value was “+ +”.

On to `COc1ccnc(C(=O)NC2CC(C)(C)CC3(C2)CC3(F)F)c1O` (stereo not drawn) [Compound 255], for which the pest or weed control at 100 ppm in the experiment on Erysiphe graminis—ERYSGT (setting [11]) was below 25%; in [4] (setting [12]), 25 to 74%; in [6], below 25%; with Septoria tritici—SEPTTR (setting [12]), 25 to 74%. The “LEPTNO in vivo 1 Day Protectant” value in experiment [1] (setting [12]) is reported as “+ +”. Also, the inhibition at 25 ppm in experiment [2] was below 80%; in experiment [3], below 80%; in the experiment on Ustilago maydis (USTIMA), below 80%; in experiment [5] (25 ppm in growth medium), below 80%; in experiment [7] it was below 80%; in experiment [8] (25 ppm in growth medium) it was above 80%.

On to `COc1ccnc(C(=O)N[C@H]2CO[C@H](C(C)Cc3ccc(C(C)(C)C)cc3)OC2)c1OC(C)=O` (stereo partly drawn) [Compound 594], for which the pest or weed control at 100 ppm with Erysiphe graminis—ERYSGT (setting [9]) is below 25%; in [1] (setting [10]) it was 25 to 74%; in experiment [6], below 25%; in the experiment on Septoria tritici—SEPTTR (setting [10]), 25 to 74%. Also, the inhibition at 25 ppm in experiment [2] is above 80%; in [3] it was above 80%; with Ustilago maydis (USTIMA), below 80%; in experiment [5] (25 ppm in the growth medium), above 80%; in experiment [7], below 80%; in [8] (25 ppm in the growth medium), above 80%. Also, in [4] (setting [10]), the “PUCCRT in vivo 1 Day Protectant” value is recorded as “+ +”.

The values above are taken from patent US6706740B2, “Fungicidal heterocyclic aromatic amides and their compositions, methods of use and preparation” (Dow AgroSciences LLC, priority 1999, dated 2004).
